Results published in PubChem BioAssay AID2060898 (Molecular Pharmacology Branch, DTP, NCI, 2025).

Test system: 616215-338-R-J1-PDC complex spheroid viability
Test: Anticancer human tumor 616215-338-R-J1-PDC patient-derived colon adenocarcinoma cell line growth inhibition [RAS]
Conditions: for viability, T/C: stronger effect = lower value
Description: RAS pathway inhibitors in Combinations in Complex Spheroids
A high-throughput screen of multi-cell type tumor spheroids was designed to identify active combinations of RAS pathway inhibitors and targeted small molecules. Complex spheroids include a stromal component modeled by human endothelial cells (HUVEC) and fibroblasts modeled by human mesenchymal stem cells (MSCs). The concentration ranges selected for each drug and investigational agent were based upon clinically achievable concentrations if the clinical Cmax of the agent was known.
Compounds. The drugs and investigational agents: abemaciclib (NSC768073), cobimetinib (NSC768068), divarasib (GDC6063, NSC841802), docetaxel (NSC628503), GDC-1971 (RLY-1971, NSC841576), gemcitabine (NSC613327), inavolisib (NSC800729), ipatasertib (NSC767898), KB-0742 (NSC834161), MRTX-1133 (NSC836407), osimertinib (NSC779217), RMC-4630 (NSC839698), RMC-6236 (NSC851965), RMC-6291 (NSC852671), Ro-3306 (NSC812927), sapanisertib (NSC764658), SN-38 (NSC673596), staurosporine (NSC755774), SY5609 (NSC837396), and tovorafenib (DAY101, NSC766906), were obtained from the National Cancer Institute (NCI) Developmental Therapeutics Program Chemical Repository. The FDA-approved anticancer drug set is available from the NCI Developmental Therapeutics Program. […] The stock solutions were prepared in dimethyl sulfoxide (DMSO, Sigma-Aldrich, St. Louis, MO, cat. D2650) at 800-fold the tested concentration and stored at -70 degrees C prior to their use. All drugs and investigational agents were tested over a range starting from a high concentration at or near the clinical Cmax and decreasing in half-log increments. If the clinical Cmax for an agent had not been determined, the highest concentration tested was 10 microM.
Cell Culture. All cells were maintained in an incubator at 37 degrees C and 5% CO2 with 95% humidity. The PDC lines were cultured according to standard operating procedures established by the NCI PDMR. All PDCs were thawed and cultured in Matrigel-coated flasks prepared with a working solution of 1X Ham's F-12 nutrient mix, without supplementation (Invitrogen, Waltham, MA, cat. 11765054), 100 U/mL penicillin-streptomycin (Invitrogen, cat. 15140122), and 2.5% Matrigel (Corning Inc., Corning, NY, cat. 354248) for the first three passages. The 362531-283-R-J2-PDC and 782815-120-R-J1-PDC lines were cultured in 6C/Colon 1B media, which includes advanced DMEM/F-12 (Thermo Fisher Scientific, cat. 12634028), 10 mM HEPES (Thermo Fisher Scientific, cat. 15630080), 1X GlutaMAX supplement (Thermo Fisher Scientific, cat. 35050061), 0.1 mg/mL primocin (InvivoGen, San Diego, CA, cat. ant-pm-2), 10% defined fetal bovine serum, heat inactivated (HyClone Laboratories Inc., Logan, UT, cat. SH30070.03HI), 50% L-WRN conditioned media (ATCC, cat. CRL-3276), 1.25 mM N-Acetyl-L-cysteine (Sigma-Aldrich, cat. A9165), 10 mM nicotinamide (Sigma-Aldrich, cat. N0636), 1X B-27 supplement (Thermo Fisher Scientific, cat. 17504044), 1X N-2 supplement (Thermo Fisher Scientific, cat. 17502048), 50 ng/mL human EGF (Thermo Fisher Scientific, cat. PHG0311), and 10 microM Y-27632 dihydrochloride (Tocris Bioscience, cat. 1254). The K12877-001-R-J1-PDC line was cultured in 6I media, which includes all 6C/Colon 1B media plus 10 ng/mL human FGF-10 (PeproTech, cat. 100-26), 1 ng/mL human FGF-2 (PeproTech, cat. 100-18B), 1 µM prostaglandin E2 (Tocris Bioscience, cat. 2296), […] hydrocortisone (Sigma-Aldrich, cat. H4001), and […] bovine insulin (Sigma-Aldrich, cat. I6634). The K86415-001-R-J1-PDC line was cultured in 6D media, which includes all 6C/Colon 1B media components minus the L-WRN conditioned media. The 485176-168-R4-J1-PDC was cultured in PANC media, which includes all 6C/Colon 1B media plus 100 ng/mL human FGF-10 (PeproTech, cat. 100-26), 500 nM SB-431542 (Selleckchem, cat. S1067), and 10 nM gastrin (Tocris Bioscience, cat. 3006). […]
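Further: spheroids exposed to agents for seven days before viability readout.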
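Wherever viability, T/C is given: 100% = DMSO vehicle control viability.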

Nc1ccn(C2OC(CO)C(O)C2(F)F)c(=O)n1 (centres undefined) + C=CC(=O)N1CCN(c2nc(OCC3CCCN3C)nc3c(F)c(-c4nc(N)cc(C)c4C(F)(F)F)c(Cl)cc23)C(C)C1
IC50 (curve of first compound, second compound 0.00316 µM): 11.8 nM
IC50 (curve of first compound, second compound 0.01 µM): 11.7 nM
IC50 (curve of first compound, second compound 0.0316 µM): 14.7 nM
IC50 (curve of first compound, second compound 0.1 µM): 15.4 nM
IC50 (curve of first compound, second compound 0.316 µM): 8.51 nM
IC50 (curve of first compound, second compound 1 µM): 9.78 nM
viability, T/C (second compound 0.00316 µM, first compound 0.00316 µM): 96.1%
viability, T/C (second compound 0.00316 µM, first compound 0.01 µM): 53.2%
viability, T/C (second compound 0.00316 µM, first compound 0.0316 µM): 29.3%
viability, T/C (second compound 0.00316 µM, first compound 0.1 µM): 14.4%
viability, T/C (second compound 0.00316 µM, first compound 0.316 µM): 14.2%
viability, T/C (second compound 0.00316 µM, first compound 1 µM): 17.6%
viability, T/C (second compound 0.01 µM, first compound 0.00316 µM): 109%
viability, T/C (second compound 0.01 µM, first compound 0.01 µM): 54.9%
viability, T/C (second compound 0.01 µM, first compound 0.0316 µM): 18.7%
viability, T/C (second compound 0.01 µM, first compound 0.1 µM): 15.8%
viability, T/C (second compound 0.01 µM, first compound 0.316 µM): 12.9%
viability, T/C (second compound 0.01 µM, first compound 1 µM): 16.3%
viability, T/C (second compound 0.0316 µM, first compound 0.00316 µM): 108%
viability, T/C (second compound 0.0316 µM, first compound 0.01 µM): 65.1%
viability, T/C (second compound 0.0316 µM, first compound 0.0316 µM): 20.1%
viability, T/C (second compound 0.0316 µM, first compound 0.1 µM): 13%
viability, T/C (second compound 0.0316 µM, first compound 0.316 µM): 9.07%
viability, T/C (second compound 0.0316 µM, first compound 1 µM): 16.4%
viability, T/C (second compound 0.1 µM, first compound 0.00316 µM): 88.9%
viability, T/C (second compound 0.1 µM, first compound 0.01 µM): 64%
viability, T/C (second compound 0.1 µM, first compound 0.0316 µM): 27%
viability, T/C (second compound 0.1 µM, first compound 0.1 µM): 14%
viability, T/C (second compound 0.1 µM, first compound 0.316 µM): 13.4%
viability, T/C (second compound 0.1 µM, first compound 1 µM): 14.6%
viability, T/C (second compound 0.316 µM, first compound 0.00316 µM): 111%
viability, T/C (second compound 0.316 µM, first compound 0.01 µM): 39.9%
viability, T/C (second compound 0.316 µM, first compound 0.0316 µM): 21%
viability, T/C (second compound 0.316 µM, first compound 0.1 µM): 11.6%
viability, T/C (second compound 0.316 µM, first compound 0.316 µM): 14.9%
viability, T/C (second compound 0.316 µM, first compound 1 µM): 20.7%
viability, T/C (second compound 1 µM, first compound 0.00316 µM): 90.7%
viability, T/C (second compound 1 µM, first compound 0.01 µM): 49%
viability, T/C (second compound 1 µM, first compound 0.0316 µM): 25.6%
viability, T/C (second compound 1 µM, first compound 0.1 µM): 16.8%
viability, T/C (second compound 1 µM, first compound 0.316 µM): 12.6%
viability, T/C (second compound 1 µM, first compound 1 µM): 17.6%

CCn1c(-c2cc(N3CCN(C)CC3)cnc2C(C)OC)c2c3cc(ccc31)-c1csc(n1)CC(NC(=O)C1CC1C)C(=O)N1CCCC(N1)C(=O)OCC(C)(C)C2 (centres undefined)
viability, T/C (compound 0.000949 µM): 107% [middle of 8 runs]
viability, T/C (compound 0.003 µM): 106% [middle of 8 runs]
viability, T/C (compound 0.00949 µM): 81.7% [middle of 8 runs]
viability, T/C (compound 0.03 µM): 53.7% [middle of 8 runs]
viability, T/C (compound 0.0949 µM): 40.6% [middle of 8 runs]
viability, T/C (compound 0.3 µM): 37.5% [middle of 8 runs]
IC50 (compound alone, run of 05/20/2024): 41.2 nM [middle of 8 runs]
